Data as given in ChEMBL document CHEMBL1773045, “Conjugate (MTC-220) of muramyl dipeptide analogue and paclitaxel prevents both tumor growth and metastasis in mice” (J Med Chem, 2011).
Activity calls are given as the source filed them. No cut-off for these calls is given here.

Key:
4T1 [1] = experiment: Antitumor activity against mouse 4T1 cells xenografted in […] mouse assessed as tumor growth inhibition at 5 mg/kg, ip qd for 28 days relative to control; assay type: functional; conditions: 4T1, ip, 672 h, route intraperitoneal, read-out: GI
[2] = Growth inhibition of human Hs 578T cells after 48 hrs by sulforhodamine B assay; assay type: functional
NCI/ADR-RES = experiment: Growth inhibition of human NCI/ADR-RES cells after 48 hrs by sulforhodamine B assay; assay type: functional
NCI-H226 = experiment: Growth inhibition of human NCI-H226 cells after 48 hrs by sulforhodamine B assay; assay type: functional; conditions: NCI-H226, 48 h
MDA-MB-231 [3] = experiment: Growth inhibition of human MDA-MB-231 cells after 48 hrs by sulforhodamine B assay; assay type: functional; conditions: MDA-MB-231, 48 h
Mus musculus [4] = experiment: Antimetastatic activity against mouse 4T1 cells xenografted in BALB/c mouse assessed as reduction of CCL2 mRNA expression in tumor at 5 mg/kg, ip qd for 23 days by RT-PCR analysis; assay type: functional, organism-based; set-up: dose 5 mg/kg
NCI-H460 [5] = experiment: Antitumor activity against human H460 cells xenografted in nu/nu BALB/c mouse assessed as tumor growth inhibition at 5 mg/kg, ip qd for 24 days measured on day 25 relative to control; assay type: functional; conditions: route intraperitoneal, read-out: GI
NCI-H460 [6] = experiment: Antitumor activity against human H460 cells xenografted in nu/nu BALB/c mouse assessed as tumor growth inhibition at 20 mg/kg, ip qd for 24 days measured on day 25 relative to control; assay type: functional; conditions: route intraperitoneal, read-out: GI
M14 = experiment: Growth inhibition of human M14 cells after 48 hrs by sulforhodamine B assay; assay type: functional; conditions: M14, 48 h
CAKI-1 = experiment: Growth inhibition of human Caki1 cells after 48 hrs by sulforhodamine B assay; assay type: functional; conditions: CAKI-1, 48 h
PC-3M = experiment: Cytotoxicity against human PC3M cells after 72 hrs by MTT assay; assay type: functional, cell-based
T47D = experiment: Growth inhibition of human T47D cells after 48 hrs by sulforhodamine B assay; assay type: functional
SF-268 = experiment: Growth inhibition of human SF268 cells after 48 hrs by sulforhodamine B assay; assay type: functional; conditions: SF-268, 48 h
MOLT-4 = experiment: Growth inhibition of human MOLT4 cells after 48 hrs by sulforhodamine B assay; assay type: functional; conditions: MOLT-4, 48 h
[7] = tested on: Lewis lung carcinoma cell line; experiment: Antimetastatic activity against mouse LLC cells xenografted in C57BL/6 mouse assessed as inhibition of lung metastasis at 10 mg/kg, ip qd for 15 days relative to control; assay type: functional; conditions: 360 h, route intraperitoneal, read-out: GI
BGC-823 = experiment: Cytotoxicity against human BGC823 cells after 72 hrs by MTT assay; assay type: functional, cell-based
EKVX = experiment: Growth inhibition of human EKVX cells after 48 hrs by sulforhodamine B assay; assay type: functional
KM12 = experiment: Growth inhibition of human KM12 cells after 48 hrs by sulforhodamine B assay; assay type: functional; conditions: KM12, 48 h
SNB-75 = experiment: Growth inhibition of human SNB75 cells after 48 hrs by sulforhodamine B assay; assay type: functional; conditions: SNB-75, 48 h
HOP-92 = experiment: Growth inhibition of human HOP92 cells after 48 hrs by sulforhodamine B assay; assay type: functional; conditions: HOP-92, 48 h
HCC 2998 = experiment: Growth inhibition of human HCC2998 cells after 48 hrs by sulforhodamine B assay; assay type: functional; conditions: HCC 2998, 48 h
MDA-MB-231 [8] = experiment: Antitumor activity against human MDA-MB-231 cells xenografted in nu/nu BALB/c mouse assessed as tumor growth inhibition at 30 mg/kg, ip qd for 12 days measured on day 25 relative to control; assay type: functional; conditions: MDA-MB-231, ip, route intraperitoneal, read-out: GI
Malme-3M = experiment: Growth inhibition of human MALME-3M cells after 48 hrs by sulforhodamine B assay; assay type: functional
BT-549 = experiment: Growth inhibition of human BT549 cells after 48 hrs by sulforhodamine B assay; assay type: functional; conditions: BT-549, 48 h
Mus musculus [9] = experiment: Toxicity in human cancer cells xenografted in nu/nu BALB/c mouse assessed as mortality at 5 to 30 mg/kg, ip qd for 24 days; assay type: organism-based, Cancer cell lines; set-up: dose 5-30 mg/kg, route intraperitoneal; conditions: in vivo, 576 h
A549 = experiment: Antitumor activity against human A549 cells xenografted in nu/nu BALB/c mouse assessed as tumor growth inhibition at 30 mg/kg, ip qd for 12 days measured on day 25 relative to control; assay type: functional; conditions: route intraperitoneal, read-out: GI
4T1 [10] = experiment: Antitumor activity against mouse 4T1 cells xenografted in […] mouse assessed as tumor growth inhibition at 2.5 mg/kg, ip qd for 28 days relative to control; assay type: functional; conditions: 4T1, ip, 672 h, route intraperitoneal, read-out: GI
Mus musculus [11] = experiment: Antimetastatic activity against mouse 4T1 cells xenografted in BALB/c mouse assessed as reduction of TGFbeta mRNA expression in tumor at 5 mg/kg, ip qd for 23 days by RT-PCR analysis; assay type: functional, organism-based; set-up: dose 5 mg/kg
MDA-MB-231 [12] = experiment: Antitumor activity against human MDA-MB-231 cells xenografted in nu/nu BALB/c mouse assessed as tumor growth inhibition at 10 mg/kg, ip qd for 24 days measured on day 25 relative to control; assay type: functional; conditions: MDA-MB-231, ip, route intraperitoneal, read-out: GI
CCRF-CEM = experiment: Growth inhibition of human CCRF-CEM cells after 48 hrs by sulforhodamine B assay; assay type: functional
MDA-MB-231 [13] = experiment: Antitumor activity against human MDA-MB-231 cells xenografted in nu/nu BALB/c mouse assessed as tumor growth inhibition at 20 mg/kg, ip qd for 24 days measured on day 25 relative to control; assay type: functional; conditions: MDA-MB-231, ip, route intraperitoneal, read-out: GI
COLO 205 = experiment: Growth inhibition of human COLO205 cells after 48 hrs by sulforhodamine B assay; assay type: functional; conditions: COLO 205, 48 h
SK-OV-3 = experiment: Growth inhibition of human SKOV3 cells after 48 hrs by sulforhodamine B assay; assay type: functional; conditions: SK-OV-3, 48 h
NCI-H460 [14] = experiment: Growth inhibition of human NCI-H460 cells after 48 hrs by sulforhodamine B assay; assay type: functional; conditions: NCI-H460, 48 h
MDA-MB-231 [15] = experiment: Antitumor activity against human MDA-MB-231 cells xenografted in nu/nu BALB/c mouse assessed as tumor growth inhibition at 15 mg/kg, ip qd for 24 days measured on day 25 relative to control; assay type: functional; conditions: MDA-MB-231, ip, route intraperitoneal, read-out: GI
Mus musculus [16] = experiment: Toxicity in human cancer cells xenografted in nu/nu BALB/c mouse assessed as side effects at 5 to 30 mg/kg, ip qd for 24 days; assay type: organism-based, Cancer cell lines; set-up: dose 5-30 mg/kg, route intraperitoneal; conditions: in vivo, 576 h
SN12C = experiment: Growth inhibition of human SN12C cells after 48 hrs by sulforhodamine B assay; assay type: functional
UACC-62 = experiment: Growth inhibition of human UACC62 cells after 48 hrs by sulforhodamine B assay; assay type: functional; conditions: UACC-62, 48 h
MCF7 = experiment: Antitumor activity against human MCF7 cells xenografted in nu/nu BALB/c mouse assessed as tumor growth inhibition at 30 mg/kg, ip qd for 12 days measured on day 36 relative to control; assay type: functional; conditions: route intraperitoneal, read-out: GI
SK-MEL-5 = experiment: Growth inhibition of human SK-MEL-5 cells after 48 hrs by sulforhodamine B assay; assay type: functional; conditions: SK-MEL-5, 48 h
OVCAR-5 = experiment: Growth inhibition of human OVCAR5 cells after 48 hrs by sulforhodamine B assay; assay type: functional; conditions: OVCAR-5, 48 h

For `CC(=O)O[C@H]1C(=O)[C@@]2(C)[C@H]([C@H](OC(=O)c3ccccc3)[C@]3(O)C[C@H](OC(=O)[C@H](OC(=O)CCC(=O)NCCCC[C@H](NC(=O)CC[C@H](NC(=O)[C@H](C)NC(=O)/C=C/c4ccc(Cl)cc4)C(N)=O)C(N)=O)[C@H](NC(=O)c4ccccc4)c4ccccc4)C(C)=C1C3(C)C)[C@]1(OC(C)=O)CO[C@@H]1C[C@@H]2O`, the inhibition in vivo at 5 mg/kg (4T1 [1]) was 33.5%, the GI50 [2] was less than 10 nM and the GI50 (NCI/ADR-RES) was less than 10 nM. For the same molecule, the GI50 (NCI-H226) was less than 10 nM, the GI50 (MDA-MB-231 [3]) was less than 10 nM and the Activity (Mus musculus [4]) was “Active”. The inhibition in vivo at 5 mg/kg (NCI-H460 [5]) was 2.15%, the inhibition in vivo at 20 mg/kg (NCI-H460 [6]) was 52.9% and the GI50 (M14) was less than 10 nM. For the same molecule, the GI50 (CAKI-1) was less than 10 nM, the Activity (PC-3M) was “Active” and the GI50 (T47D) was less than 10 nM. For the same molecule, the GI50 (SF-268) was less than 10 nM, the GI50 (MOLT-4) was less than 10 nM and the inhibition in vivo at 10 mg/kg [7] was 47.4%. For the same molecule, the Activity (BGC-823) was “Active”, the GI50 (EKVX) was less than 10 nM and the GI50 (KM12) was less than 10 nM. It also gave a GI50 (SNB-75) of less than 10 nM, a GI50 (HOP-92) of less than 10 nM and a GI50 (HCC 2998) of less than 10 nM. For the same molecule, the inhibition in vivo at 30 mg/kg (MDA-MB-231 [8]) was 87%, the GI50 (Malme-3M) was less than 10 nM and the GI50 (BT-549) was less than 10 nM. The Activity (Mus musculus [9]) was “Non-toxic”, the inhibition in vivo at 30 mg/kg (A549) was 79.9% and the inhibition in vivo at 2.5 mg/kg (4T1 [10]) was 27.4%. The Activity (Mus musculus [11]) was “Active”, the inhibition in vivo at 10 mg/kg (MDA-MB-231 [12]) was 37.3% and the GI50 (CCRF-CEM) was less than 10 nM. The inhibition in vivo at 20 mg/kg (MDA-MB-231 [13]) was 72.2%, the GI50 (COLO 205) was less than 10 nM and the GI50 (SK-OV-3) was less than 10 nM. For the same molecule, the GI50 (NCI-H460 [14]) was less than 10 nM, the inhibition in vivo at 15 mg/kg (MDA-MB-231 [15]) was 57.4% and the Activity (Mus musculus [16]) was “Non-toxic”. It also gave a GI50 (SN12C) of less than 10 nM, a GI50 (UACC-62) of less than 10 nM and an inhibition in vivo at 30 mg/kg (MCF7) of 100%. It also gave a GI50 (SK-MEL-5) of less than 10 nM and a GI50 (OVCAR-5) of less than 10 nM.
